According to the NIST ThermoML archive (doi:10.1016/j.fluid.2014.01.019):

Assay: xn = mol fraction of the nth substance listed
Settings: 101 kPa, Liquid; for mass density: Vibrating tube method; for speed of sound: Frequency=2 MHz, Linear variable-path acoustic interferometer

Cc1ccc(Cl)cc1 [4-chlorotoluene] + OCc1ccccc1
Settings | mass density, 298.15 K [kg/m3] | mass density, 303.15 K [kg/m3] | mass density, 308.15 K [kg/m3] | mass density, 313.15 K [kg/m3] | speed of sound, 303.15 K [m/s] | speed of sound, 313.15 K [m/s]
x2 = 0.0509 | 1063.78 | 1058.47 | 1053.11 | 1048.16 | 1292 | 1248
x2 = 0.1252 | 1062.11 | 1056.85 | 1051.49 | 1046.61 | 1327 | 1265
x2 = 0.1878 | 1060.69 | 1055.5 | 1050.13 | 1045.28 | 1350 | 1281
x2 = 0.2309 | 1059.7 | 1054.46 | 1049.19 | 1044.4 | 1370 | 1288
x2 = 0.3028 | 1058.05 | 1052.76 | 1047.63 | 1042.92 | 1394 | 1307
x2 = 0.3649 | 1056.62 | 1051.58 | 1046.32 | 1041.65 | 1415 | 1325
x2 = 0.4393 | 1054.9 | 1049.98 | 1044.75 | 1040.17 | 1439 | 1343
x2 = 0.5424 | 1052.48 | 1047.59 | 1042.61 | 1038.12 | 1468 | 1369
x2 = 0.6094 | 1050.91 | 1046.21 | 1041.23 | 1036.83 | 1480 | 1387
x2 = 0.6598 | 1049.71 | 1045.06 | 1040.21 | 1035.88 | 1493 | 1399
x2 = 0.7028 | 1048.68 | 1044.09 | 1039.35 | 1035.06 | 1502 | 1410
x2 = 0.7557 | 1047.41 | 1042.91 | 1038.31 | 1034.1 | 1506 | 1423
x2 = 0.8153 | 1045.97 | 1041.58 | 1037.16 | 1033.02 | 1511 | 1437
x2 = 0.8539 | 1045.04 | 1040.74 | 1036.42 | 1032.32 | 1513 | 1448
x2 = 0.9235 | 1043.33 | 1039.23 | 1035.1 | 1031.15 | 1514 | 1465

Cc1ccccc1Cl [2-chlorotoluene] + OCc1ccccc1
Settings | mass density, 298.15 K [kg/m3] | mass density, 303.15 K [kg/m3] | mass density, 308.15 K [kg/m3] | mass density, 313.15 K [kg/m3] | speed of sound, 303.15 K [m/s] | speed of sound, 313.15 K [m/s]
x2 = 0.0507 | 1074.83 | 1071.16 | 1066.48 | 1061.94 | 1301 | 1296
x2 = 0.1134 | 1072.8 | 1068.97 | 1064.3 | 1059.77 | 1320 | 1308
x2 = 0.1507 | 1071.57 | 1067.66 | 1062.99 | 1058.47 | 1332 | 1316
x2 = 0.1894 | 1070.31 | 1066.29 | 1061.66 | 1057.14 | 1344 | 1325
x2 = 0.2477 | 1068.37 | 1064.25 | 1059.65 | 1055.13 | 1360 | 1336
x2 = 0.3059 | 1066.42 | 1062.2 | 1057.64 | 1053.16 | 1377 | 1348
x2 = 0.3686 | 1064.3 | 1060 | 1055.47 | 1051.04 | 1394 | 1360
x2 = 0.4535 | 1061.39 | 1057.02 | 1052.56 | 1048.18 | 1415 | 1377
x2 = 0.5385 | 1058.41 | 1054.04 | 1049.63 | 1045.3 | 1436 | 1393
x2 = 0.6309 | 1055.16 | 1050.78 | 1046.46 | 1042.2 | 1456 | 1411
x2 = 0.7003 | 1052.67 | 1048.32 | 1044.08 | 1039.89 | 1469 | 1426
x2 = 0.7723 | 1050.04 | 1045.77 | 1041.59 | 1037.48 | 1482 | 1442
x2 = 0.8537 | 1047.01 | 1042.88 | 1038.81 | 1034.72 | 1496 | 1458
x2 = 0.8902 | 1045.64 | 1041.6 | 1037.56 | 1033.55 | 1499 | 1466
x2 = 0.9547 | 1043.18 | 1039.28 | 1035.35 | 1031.4 | 1508 | 1478

Cc1cccc([N+](=O)[O-])c1 [3-nitrotoluene] + OCc1ccccc1
Settings | mass density, 298.15 K [kg/m3] | mass density, 303.15 K [kg/m3] | mass density, 308.15 K [kg/m3] | mass density, 313.15 K [kg/m3] | speed of sound, 303.15 K [m/s] | speed of sound, 313.15 K [m/s]
x2 = 0.0537 | 1146.83 | 1141.95 | 1137.26 | 1132.52 | 1446 | 1414
x2 = 0.1225 | 1139.74 | 1134.93 | 1130.25 | 1125.57 | 1451 | 1419
x2 = 0.1914 | 1132.59 | 1127.81 | 1123.19 | 1118.56 | 1456 | 1424
x2 = 0.2356 | 1127.96 | 1123.23 | 1118.65 | 1114.02 | 1459 | 1427
x2 = 0.2992 | 1121.25 | 1116.57 | 1112.02 | 1107.46 | 1464 | 1432
x2 = 0.3717 | 1113.52 | 1108.89 | 1104.4 | 1099.9 | 1469 | 1438
x2 = 0.4567 | 1104.33 | 1099.76 | 1095.34 | 1090.91 | 1476 | 1444
x2 = 0.5413 | 1095.03 | 1090.53 | 1086.18 | 1081.85 | 1481 | 1452
x2 = 0.6035 | 1088.09 | 1083.66 | 1079.37 | 1075.08 | 1486 | 1456
x2 = 0.6539 | 1082.39 | 1078.02 | 1073.77 | 1069.5 | 1490 | 1460
x2 = 0.7023 | 1076.86 | 1072.56 | 1068.36 | 1064.17 | 1494 | 1463
x2 = 0.7437 | 1072.1 | 1067.84 | 1063.65 | 1059.52 | 1496 | 1467
x2 = 0.8121 | 1064.1 | 1059.94 | 1055.82 | 1051.76 | 1502 | 1472
x2 = 0.8556 | 1058.96 | 1054.85 | 1050.78 | 1046.79 | 1505 | 1475
x2 = 0.9354 | 1049.37 | 1045.39 | 1041.41 | 1037.5 | 1511 | 1481
